Data: patent US8618046B2, “Treatment of atherosclerosis with cholesterol ester transport protein mimotopes” (Affiris AG, priority 2007, dated 2013)
Entries after “also recorded” stand apart in the source; their conditions may differ. Where no end group is shown, it is not given here.

How the values were obtained:
injected peptide-BSA = experiment: Titer to the injected peptide in sera of immunised animals (peptide ELISA); format: in vivo, mouse; conditions: FIG. 11; Balb/c mice, 30 μg peptide, Alum as adjuvant; S3 = 2 weeks after 3rd injection; detection αIgG
Protocol: Balb/c mice/30 μg Peptide, 2 injections in 2 week intervals. S3=2 weeks after 3rd injection. Alum as adjuvant. […] Detection: αIgG:
(§1) Inhibiting as well as some non-inhibiting peptides were coupled to KLH and injected into mice (wildtype or CETP-transgenic mice; subcutaneously into the flank or intra-dermaly into the ears) or rabbits (subcutaneously into the flank) together with an appropriate adjuvant (aluminium hydroxide and Gerbu 100 for mice and aluminium hydroxide or CFA/IFA for rabbits).
(§2) Titers to injected peptides as well as to the original CETP epitope were determined. In addition, for selected sera also immune response to CETP protein was measured (Results see FIGS. 7a to 7d and FIGS. 19a to 19e).
Subcutaneous injections in the flank were performed in week 1, week 3 and week 7 with 30 μg peptide-KLH per mouse. Intradermal injections in the ear were performed in week 1, week 3 and week 6 with 10 μg peptide-KLH per mouse. Sera were taken 2 weeks after the 3rd injection. Vaccine formulation with Alum (always 1 mg per mouse): up to 250 μl, injected into one flank. The Alum formulation with 1 ml per mouse (500 μl into each flank) was in 1×PBS as buffer. […]

original epitope (p4073) = experiment: Titer to the original CETP epitope in sera of immunised animals (peptide ELISA); format: in vivo, mouse; conditions: FIG. 11; Balb/c mice, 30 μg peptide, Alum as adjuvant; S3; coating 1 μM p4073-BSA; detection αIgG
Protocol: (§3) Balb/c mice/30 μg Peptide, 2 injections in 2 week intervals. S3=2 weeks after 3rd injection. Alum as adjuvant. Titers against original epitope (p4073) induced by injection of mimotopes. Well coating: 50 μl of 1 μM p4073-BSA or 1 μg/ml activated KLH. Detection: αIgG:
as §1, §2
(§4) Subcutaneous injections in the flank were performed in week 1, week 3 and week 7 with 30 μg peptide-KLH per mouse. Intradermal injections in the ear were performed in week 1, week 3 and week 6 with 10 μg peptide-KLH per mouse. Sera were taken 2 weeks after the 3rd injection. Vaccine formulation with Alum (always 1 mg per mouse): up to 250 μl, injected into one flank. The Alum formulation with 1 ml per mouse (500 μl into each flank) was in 1×PBS as buffer.
Vaccine formulation with Gerbu Adjuvant 100 (Gerbu Cat. Nr. #3100; always 50 μl adjuvant per mouse): 200 μl, 100 μl injected into each flank comprising 1×HEPES as buffer. […]

irrelevant peptide-BSA = experiment: Titer to irrelevant peptide in sera of immunised animals (peptide ELISA); format: in vivo, mouse; conditions: FIG. 11; Balb/c mice, 30 μg peptide, Alum as adjuvant; S3; detection αIgG
Protocol: as §3, §4
Vaccine formulation with Gerbu Adjuvant 100 (Gerbu Cat. Nr. #3100; always 50 μl adjuvant per mouse): 200 μl, 100 μl injected into each flank comprising 1×HEPES as buffer.
Female Balb/c mice, five mice per group, were subcutaneously immunized with 30 μg peptide coupled to KLH. Control groups were administered KLH or C-[…] (SEQ ID NO. 147). As adjuvant alum was used. […] The in vitro ELISA assay to determine the antibody titer was performed with pooled sera after two vaccinations in a two week interval (S2; see FIGS. 7a to 7d). The wells of the ELISA plate were coated with KLH (positive control), mimotope-BSA conjugate, C-[…] (SEQ ID NO. 147) and a irrelevant peptide-BSA conjugate (negative control). The detection was performed with anti-mouse IgG.

recombinant GST-CETP = experiment: Anti-protein ELISA of sera of immunised mice, plates coated with recombinant GST-CETP; format: in vivo; conditions: sera of immunised mice
Source text: (§5) FIGS. 12a and 12b show the in vivo induction of CETP specific antibodies by the administration of the mimotopes of the invention. Titers to p4073 and its correlation to titers to CETP of selected groups (which show high titers against p4073): gr.4, gr.9, gr.10, gr.14, gr.16-20/gr.1 (KLH), gr.2 (original epitope) as controls. Coating: recombinant GST-CETP or purified rabbit CETP, respectively:
(§6) Sera of each group (5 Balb/c mice each) were combined, diluted 1:100 and tested on ELISA plates coated with recombinant GST-CETP or rabbit CETP, respectively. Detection of bound antibodies was with algG.
as §2

rabbit CETP = experiment: Anti-protein ELISA of sera of immunised mice, plates coated with purified rabbit CETP; format: in vivo, mouse; conditions: sera of immunised mice, purified rabbit CETP
Source text: as §5, §6, §2

CETP = CETP activity assay: human serum mixed with serum from vaccinated wild-type mice; format: biochemical; conditions: for CETP activity after addition of serum from vaccinated mice: FIG. 14, 0.6 μl human serum; for inhibition of CETP activity in human serum (in words): FIGS. 15 to 17 and remarks in the example set-up table, sera of vaccinated mice

| Substance | titer, injected peptide-BSA (injected peptide-BSA) | titer, original epitope-BSA (original epitope (p4073)) | titer, irrelevant peptide-BSA (irrelevant peptide-BSA) | ELISA signal, recombinant GST-CETP (recombinant GST-CETP; FIG. 12a) | ELISA signal, rabbit CETP (rabbit CETP; FIG. 12a) | CETP activity after addition of serum from vaccinated mice (CETP; 0.2 μl mouse serum) | CETP activity after addition of serum from vaccinated mice (CETP; 1.2 μl and 0.6 μl mouse serum) | inhibition of CETP activity in human serum (in words) (CETP) | ELISA signal, recombinant GST-CETP (recombinant GST-CETP; FIG. 12b) | ELISA signal, rabbit CETP (rabbit CETP; FIG. 12b) | inhibition of CETP activity in human serum (in words) (CETP; listed as p4325-KLH/Alum) |
| --- | --- | --- | --- | --- | --- | --- | --- | --- | --- | --- | --- |
| p4361-KLH: C-FGFPAHVFIDWLQSLS coupled to KLH (CFGFPAHVFIDWLQSLS; also: coupled to KLH) | 17.940 | 9.530 | 10 | 1.64 | 1.51 | reduces significantly said activity | completely inhibits CETP activity | inhibits significantly CETP activity | – | – | – |
| p4325-KLH: C-FGFPSHLIIDWLQSLS coupled to KLH (CFGFPSHLIIDWLQSLS; also: coupled to KLH) | 2.930 | 1.820 | 10 | – | – | – | – | – | 0.59 | 0.85 | inhibits significantly CETP activity; also recorded: C-31 and C-33; sera inhibiting |
